Laboratory results reported in patent US20130178437A1, “CONJUGATES COMPRISING HYDROXYALKYL STARCH AND A CYTOTOXIC AGENT AND PROCESS FOR THEIR PREPARATION” (priority 2010, published 2013).
Marks after values point to notes of the source that are not given here.

Legend:
[1] = tested on: human breast cancer carcinoma MT-3; test: Tumor growth inhibition, s.c. MT-3 xenografts in nude mice (epirubicin and idarubicin conjugates); type: in vivo, NMRI-nu/nu nude mice; details: MT-3 subtype obtained from a different laboratory; unmodified drug
Method: All experiments were performed using 5-6 weeks old female NMRI^−nu/nu nude mice (approximate weight: 30 g after acclimatization). Mice were maintained in individual ventilated cages (IVC, max. 3 mice/cage) at constant temperature and humidity. Animal weights were taken every other day (Monday, Wednesday and Friday). Animal behavior was monitored daily. At study end, animals were sacrificed and in case the tumor volume was measured a necropsy was performed.
Monolayers of MT-3 cells were grown in DMEM 4500 with phenol red supplement with 10% FCS, 1% L-Glutamine, 100 units penicillin/ml, and 100 μg of streptomycin/ml. MT-3 cells were cultured in a humidified atmosphere of 90% air and 10% carbon dioxide at 37° C. Media were routinely changed every 3 days.
For experimental use 5×10^6 to 10^7 tumor cells/mouse from the in vitro passage were transplanted s.c. into the flank of each of 10 mice/group at day 0.
At palpable tumor size (30-100 mm^3) treatment was started. The application volume was 0.2 ml/20 g mouse body weight. The test compounds, the vehicle controls and the reference compounds were all given intravenously (i.v.).
Tumor growth inhibition was used as therapeutic parameter. Additionally, body weight change was determined as signs for toxicity (particularly, potential hematological or gastrointestinal side effects). […]

[2] = Body weight change and toxic deaths in xenograft-bearing mice (doxorubicin studies); type: in vivo, NMRI:nu/nu mice; details: for Toxic deaths: 7 mice
Method: (§1) For all in vivo studies in which doxorubicin conjugates wer administred, adult female NMRI:nu/nu mice (TACONIC Europe, Lille Skensved, Denmark) were used throughout the study.
(§2) At palpable tumor size (30-100 mm^3) treatment started. The application volume was 0.2 ml/20 g mouse body weight. The test compounds, the vehicle controls and the reference compounds were all given intravenously (i.v.).
(§3) Tumor growth inhibition was used as therapeutic parameter. Additionally, body weight change was determined as signs for toxicity (particularly, potential hematological or gastrointestinal side effects).
Individual body weights of mice were determined twice weekly and mean body weight per group was related to the initial value in percent (body weight change, BWC).
On the day of necropsy the mice were sacrificed by cervical dislocation and inspected for gross organ changes.
(§4) Tables 10 to 15 summarize the results for the tested, Doxorubicin conjugates and the reference compound Doxorubicin.
The loss of body weight is known to be an indicator of gastro-intestinal and hepatotoxicity of the tested compound.

[3] = tested on: human ovarian cancer carcinoma ovcar-3; test: Tumor growth inhibition, s.c. ovcar-3 xenografts in nude mice (doxorubicin conjugates); type: in vivo, NMRI:nu/nu mice; details: Table 13; 8 mg/kg/inj. i.v., treatment d 5
Source text: as §1
(§5) The human breast cancer carcinoma MT-3, human ovarian cancer carcinoma ovcar-3 and human mamma carcinoma MT3-ADR were used as s.c. xenotransplantation model in immunodeficient female […] mice (see table 17).
(§6) The cells were obtained from ATCC and are cryo-preserved within the EPO tumor bank. They were thawed, expanded in vitro and transplanted as cell suspension subcutaneously (s.c.) in female NMRI:nu/nu mice. The tumor lines MT-3, ovcar-3 and MT3-ADR are used for testing new anticancer drugs or novel therapeutic strategies. It was therefore selected for this study. MT-3, ovcar-3 and MT3-ADR xenografts are growing relatively fast and uniform.
(§7) For experimental use 5*10^6 to 10^7 tumor cells/mouse from the in vitro passage were transplanted s.c. into the flank of each of 10 mice/group at day 0.
as §2, §3
(§8) Tumor diameters were measured twice weekly with a caliper. Tumor volumes were calculated according to V=(length×(width)^2)/2. For calculation of the relative tumor volume (RTV) the tumor volumes at each measurement day were related to the day of first treatment. At each measurement day the median and mean tumor volumes per group and also the treated to control (T/C) values in percent were calculated (Table 10 to 15).
(§9) Descriptive statistics were performed on the data of body weight and tumor volume. […] Statistical evaluation was performed with the U-test of Mann and Whitney with a significance level of p≦0.05, using the Windows program […] 6. […]

[4] = tested on: human breast cancer carcinoma MT-3; test: Tumor growth inhibition, s.c. MT-3 xenografts in nude mice (doxorubicin conjugates); type: in vivo, NMRI:nu/nu mice; details: 8 mg/kg/inj. i.v.
Source text: as §1, §5, §6, §7, §2, §3, §8
Descriptive statistics were performed on the data of body weight and tumor volume. […] Statistical evaluation was performed with the U-test of Mann and Whitney with a significance level of p≦0.05, using the Windows program […] 6.
The tested Doxorubicin conjugates CDx1 to CDx15 were obtained as described herein above and were kept in a freeze-dried form at −20° C. until the use. Before administration, the conjugates were dissolved in saline solution by vortexing in combination with centrifugation until a clear solution of the necessary concentration of the drug was obtained. The obtained solutions were prepared and injected under sterile conditions.
The reference compound was Doxorubicin (which is, for example, available as Doxorubicin NC® from Neocorp). Doxorubicin was stored in aliquots at 4° C. in the dark and diluted in saline before administration.
as §4

[5] = tested on: human mamma carcinoma MT3-ADR; test: Tumor growth inhibition, s.c. MT3-ADR xenografts in nude mice (doxorubicin conjugates); type: in vivo, NMRI:nu/nu mice; details: Table 14; 8 mg/kg/inj. i.v., treatment d 10
Source text: as §1, §5, §6, §7, §2, §3, §8, §9

[6] = Table 13, ovcar-3 model, 8 mg/kg/inj. i.v., treatment d 5
[7] = Table 14, MT3-ADR model, 8 mg/kg/inj. i.v., treatment d 10

With `CC(=O)[C@]1(O)Cc2c(O)c3c(c(O)c2[C@@H](O[C@H]2C[C@H](N)[C@H](O)[C@H](C)O2)C1)C(=O)c1ccccc1C3=O` [Idarubicin] the “sensibility of the MT-3 subtype towards anthracycline therapy” value [1] was “no sensibility towards anthracycline therapy”.
For `COc1cccc2c1C(=O)c1c(O)c3c(c(O)c1C2=O)C[C@@](O)(C(=O)CO)C[C@@H]3O[C@H]1C[C@H](N)[C@H](O)[C@H](C)O1` [Doxorubicin], the “BWC (%) (d 10/d 28)” value ([2]; Table 11, MT-3 model, 8 mg/kg/inj. i.v., treatment d 10) was 2%, the “BWC [%] (at day)” value ([2]; Table 12, MT-3 model, 8 mg/kg/inj. i.v., treatment d 7) was “(19) day” and the “BWC [%]” value ([2]; Table 12, MT-3 model, 8 mg/kg/inj. i.v., treatment d 7, maximum body weight loss) was −2%. For the same molecule, the “BWC [%] (at day)” value [2, 6] was “(7) day”, the Toxic deaths [2, 6] was 0 and the “BWC [%]” value ([2]; Table 13, ovcar-3 model, 8 mg/kg/inj. i.v., treatment d 5, maximum body weight loss) was −4%. For the same molecule, the “BWC [%] (at day)” value [2, 7] was “(25) day”, the Toxic deaths [2, 7] was 0 and the “BWC [%]” value ([2]; Table 14, MT3-ADR model, 8 mg/kg/inj. i.v., treatment d 10, maximum body weight loss) was −8%. The “BWC (%) (d 7/d 20)” value ([2]; Table 15, MT-3 model, 8 mg/kg/inj. i.v., treatment d 7) was −6%, the “BWC (%): day of maximum body weight loss” value ([2]; mouse, in vivo, iv, 8 mg/kg) was “(d 24)” and the “BWC [%]” value ([2]; mouse, in vivo, iv, 8 mg/kg) was −8%. For the same molecule, the “RTV T/C (%) Optimum” value [3] was 37.1%, the “RTV T/C (%) Optimum (at day)” value [3] was “(19) day” and the “Tumor growth RTV d 39” value [3] was 9.86 +/− 7.98. For the same molecule, the “T/C (%) (TV) at the end” value ([4]; Table 10, treatment d 7, 14) was 1.16 +/− 0.35%, the “T/C (%) Optimum” value ([4]; Table 10, treatment d 7, 14) was 32.2% and the “T/C (%) Optimum (at day)” value ([4]; Table 10, treatment d 7, 14) was “(18) day”. For the same molecule, the “Tumor growth RTV d 28” value ([4]; Table 10, treatment d 7, 14) was 10.8 +/− 3.7, the “T/C (%) Optimum” value ([4]; Table 11, treatment d 10) was 30% and the “T/C (%) Optimum (at day)” value ([4]; Table 11, treatment d 10) was “(21) day”. For the same molecule, the “Tumor growth RTV d 28” value ([4]; Table 11, treatment d 10) was 4.3 +/− 3.4, the “RTV T/C (%) Optimum” value ([4]; Table 12, treatment d 7) was 39.2% and the “RTV T/C (%) Optimum (at day)” value ([4]; Table 12, treatment d 7) was “(29) day”. For the same molecule, the “Tumor growth RTV d 33” value ([4]; Table 12, treatment d 7) was 5.59 +/− 0.78*, the “T/C (%) Optimum” value ([4]; Table 15, treatment d 7) was 37.8% and the “T/C (%) Optimum (at day)” value ([4]; Table 15, treatment d 7) was “(13) day”. For the same molecule, the “Tumor growth RTV d 20” value ([4]; Table 15, treatment d 7) was 8.1 +/− 2.1*, the “RTV T/C (%) Optimum” value [5] was 58.4% and the “RTV T/C (%) Optimum (at day)” value [5] was “(29) day”. The “Tumor growth RTV d 31” value [5] was 15.3 +/− 5.9*.
For `COc1cccc2c1C(=O)c1c(O)c3c(c(O)c1C2=O)C[C@@](O)(C(=O)CO)C[C@@H]3O[C@H]1C[C@H](N)[C@@H](O)[C@H](C)O1` [Epirubicin], the “sensibility of the MT-3 subtype towards anthracycline therapy” value [1] was “no sensibility towards anthracycline therapy”.
